ChEMBL document CHEMBL5113526, “Design, Synthesis, and Biological Evaluation of Androgen Receptor Degrading and Antagonizing Bifunctional Steroidal Analogs for the Treatment of Advanced Prostate Cancer” (J Med Chem, 2022)
The source made the active and inactive calls. The calls are words filed in the database; no cut-off is given here.

Assays:
[1] = test system: LNCaP; assay: Antiproliferative activity against human LNCAP cells assessed as reduction in cell viability at 10 uM measured after 6 days by CellTiterGlo assay relative to control; assay type: functional; conditions: time 6 day; for inhibition at 10 µM: Homo sapiens, LNCaP
[2] = molecular target: T1, Steroid 17-alpha-hydroxylase/17,20 lyase (Homo sapiens, UniProt P05093); assay: Inhibition of human recombinant CYP17A1 incubated for 5 mins in presence of NADPH by LC-MS/MS analysis; assay type: ADME
T1 sequence (P05093 whole entry): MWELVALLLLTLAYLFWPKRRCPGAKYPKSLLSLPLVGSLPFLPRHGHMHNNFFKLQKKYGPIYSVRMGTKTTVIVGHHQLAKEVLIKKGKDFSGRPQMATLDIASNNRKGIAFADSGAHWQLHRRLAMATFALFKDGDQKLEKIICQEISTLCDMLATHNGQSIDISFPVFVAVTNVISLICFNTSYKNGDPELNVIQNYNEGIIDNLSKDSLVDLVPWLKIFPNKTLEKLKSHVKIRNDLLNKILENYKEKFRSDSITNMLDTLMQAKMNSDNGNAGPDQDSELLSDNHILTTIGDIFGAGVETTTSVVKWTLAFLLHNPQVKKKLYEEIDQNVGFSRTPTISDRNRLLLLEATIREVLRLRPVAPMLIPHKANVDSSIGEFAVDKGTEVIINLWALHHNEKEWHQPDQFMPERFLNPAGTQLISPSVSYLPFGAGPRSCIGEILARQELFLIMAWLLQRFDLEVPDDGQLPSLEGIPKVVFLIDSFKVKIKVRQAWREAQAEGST

[3] = molecular target: T2, Androgen receptor (Homo sapiens, UniProt P10275); assay: Antagonist activity at DHT-induced Androgen receptor transcriptional activity in human HEK293 cells measured after 24 hrs by Steady-Glo reagent based assay; assay type: cell-based
T2 sequence (P10275 whole entry): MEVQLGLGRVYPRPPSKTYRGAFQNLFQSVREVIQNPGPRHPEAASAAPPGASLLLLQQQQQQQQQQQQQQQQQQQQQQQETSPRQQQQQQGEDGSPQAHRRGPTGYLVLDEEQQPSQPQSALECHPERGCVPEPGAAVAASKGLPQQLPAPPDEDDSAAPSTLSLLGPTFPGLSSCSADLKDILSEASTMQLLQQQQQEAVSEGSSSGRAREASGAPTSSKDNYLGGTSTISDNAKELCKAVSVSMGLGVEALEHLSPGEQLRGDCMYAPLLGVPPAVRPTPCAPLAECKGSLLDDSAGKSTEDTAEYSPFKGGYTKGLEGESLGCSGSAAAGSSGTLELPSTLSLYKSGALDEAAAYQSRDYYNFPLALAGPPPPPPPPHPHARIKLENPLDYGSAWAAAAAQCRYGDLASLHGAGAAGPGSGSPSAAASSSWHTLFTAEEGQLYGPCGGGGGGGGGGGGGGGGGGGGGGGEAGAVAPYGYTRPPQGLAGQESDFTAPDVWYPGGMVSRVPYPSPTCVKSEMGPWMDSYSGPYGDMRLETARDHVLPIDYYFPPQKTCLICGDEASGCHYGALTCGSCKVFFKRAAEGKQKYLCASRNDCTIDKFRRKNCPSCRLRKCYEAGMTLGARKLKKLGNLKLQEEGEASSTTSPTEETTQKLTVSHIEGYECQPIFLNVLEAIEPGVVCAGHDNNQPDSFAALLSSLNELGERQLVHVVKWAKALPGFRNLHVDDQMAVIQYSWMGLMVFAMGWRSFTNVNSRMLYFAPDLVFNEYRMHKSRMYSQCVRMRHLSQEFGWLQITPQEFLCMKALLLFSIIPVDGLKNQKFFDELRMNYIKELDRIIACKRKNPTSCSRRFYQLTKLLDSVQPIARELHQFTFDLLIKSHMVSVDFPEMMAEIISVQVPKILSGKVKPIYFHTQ

[4] = molecular target: T2, Androgen receptor; assay: Induction of AR degradation in human LNCap cells incubated for 24 hrs by sandwich ELISA analysis; assay type: cell-based
[5] = Terminal half life in Sprague-Dawley rat at 10 mg/kg, po measured up to 24 hrs by LC-MS/MS analysis; assay type: ADME, organism-based; conditions: in vivo, read-out: beta t1/2 (converted)
[6] = Tmax in Sprague-Dawley rat at 10 mg/kg, po measured up to 24 hrs by LC-MS/MS analysis; assay type: ADME, organism-based; conditions: in vivo
[7] = Cmax in Sprague-Dawley rat at 10 mg/kg, po measured up to 24 hrs by LC-MS/MS analysis; assay type: ADME, organism-based; design: dose 10 mg/kg, time < 24 hrs, route po; conditions: in vivo
[8] = AUC (0 to t) in Sprague-Dawley rat at 10 mg/kg, po measured up to 24 hrs by LC-MS/MS analysis; assay type: ADME, organism-based; design: time < 24 hrs, dose 10 mg/kg, route po; conditions: in vivo
[9] = molecular target: Voltage-gated inwardly rectifying potassium channel KCNH2 (Homo sapiens, UniProt Q12809); assay: Inhibition of hERG potassium channel at -80 mV holding potential incubated for 3 mins by automated patch clamp method; assay type: toxicity
Sequence of Voltage-gated inwardly rectifying potassium channel KCNH2 (Q12809 whole entry): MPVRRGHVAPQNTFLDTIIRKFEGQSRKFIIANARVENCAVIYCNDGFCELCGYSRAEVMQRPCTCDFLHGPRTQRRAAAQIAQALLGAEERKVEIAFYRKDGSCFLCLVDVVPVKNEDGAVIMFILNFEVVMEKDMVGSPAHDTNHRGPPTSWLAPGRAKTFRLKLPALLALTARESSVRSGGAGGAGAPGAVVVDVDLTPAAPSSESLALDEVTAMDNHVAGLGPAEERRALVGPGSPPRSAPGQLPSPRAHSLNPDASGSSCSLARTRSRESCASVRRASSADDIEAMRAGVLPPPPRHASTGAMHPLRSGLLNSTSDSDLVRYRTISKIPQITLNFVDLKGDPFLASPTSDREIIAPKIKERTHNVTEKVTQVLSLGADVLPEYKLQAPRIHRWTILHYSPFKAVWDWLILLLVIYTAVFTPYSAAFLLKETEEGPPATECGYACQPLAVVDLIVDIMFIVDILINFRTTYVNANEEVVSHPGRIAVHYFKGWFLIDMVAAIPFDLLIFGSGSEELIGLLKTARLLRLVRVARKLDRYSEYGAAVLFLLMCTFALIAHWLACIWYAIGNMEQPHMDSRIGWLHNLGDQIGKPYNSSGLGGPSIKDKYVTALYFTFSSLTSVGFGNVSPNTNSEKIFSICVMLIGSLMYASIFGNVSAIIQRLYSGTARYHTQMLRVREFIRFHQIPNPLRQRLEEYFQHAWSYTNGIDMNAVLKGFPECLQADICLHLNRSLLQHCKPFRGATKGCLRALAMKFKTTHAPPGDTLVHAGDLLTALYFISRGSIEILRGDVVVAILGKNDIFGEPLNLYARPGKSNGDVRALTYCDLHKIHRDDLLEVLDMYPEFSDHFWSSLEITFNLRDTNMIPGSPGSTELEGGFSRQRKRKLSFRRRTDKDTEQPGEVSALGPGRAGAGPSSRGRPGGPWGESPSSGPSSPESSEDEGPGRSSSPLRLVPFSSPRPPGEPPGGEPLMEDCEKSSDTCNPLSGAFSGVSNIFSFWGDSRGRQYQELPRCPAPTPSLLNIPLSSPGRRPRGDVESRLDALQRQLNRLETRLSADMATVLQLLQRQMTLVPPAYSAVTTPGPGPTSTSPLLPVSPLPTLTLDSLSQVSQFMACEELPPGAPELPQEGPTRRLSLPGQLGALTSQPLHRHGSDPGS

[10] = molecular target: T3, Androgen receptor (Homo sapiens) (UniProt P10275); assay: Induction of AR degradation in human LNCap cells at 20 uM measured after 24 hrs by Western blot analysis; assay type: cell-based
T3 sequence (whole entry): T2 sequence (P10275 whole entry)

[11] = molecular target: T3, Androgen receptor (Homo sapiens); assay: Induction of AR degradation in human LNCap cells at 20 uM by Western blot analysis; assay type: cell-based; conditions: time 2-24 hrs, TDE = time-dependent effect
[12] = test system: CWR22R; assay: Antiproliferative activity against human 22Rv1 cells expressing AR-v7 assessed as reduction in cell viability measured after 6 days by CTG assay; assay type: functional, cell-based
[13] = test system: CWR22R; assay: Antiproliferative activity against human 22Rv1 cells expressing AR-v7 assessed as reduction in cell viability at 30 uM measured after 6 days by CTG assay; assay type: functional; conditions: time 6 day
[14] = test system: Androgen receptor (Homo sapiens), P10275 [UNDEFINED MUTATION]; assay: Induction of AR-v7 degradation in human 22Rv1 cells incubated for 24 hrs by Western blot analysis; assay type: cell-based; conditions: dose 1-20 µM, DDE = dose-dependent effect
[15] = Antagonist activity at androgen receptor W741L mutant (unknown origin) expressed in HEK293 cells incubated for 24 hrs by luciferase reporter assay; assay type: cell-based; conditions: Homo sapiens, HEK293, 24 h
[16] = molecular target: Androgen receptor (Homo sapiens, UniProt P10275, T878A); assay: Antagonist activity at androgen receptor T877A mutant (unknown origin) expressed in HEK293 cells incubated for 24 hrs by luciferase reporter assay; assay type: cell-based
Sequence of Androgen receptor (Homo sapiens, UniProt P10275, T878A) (P10275 whole entry T878A): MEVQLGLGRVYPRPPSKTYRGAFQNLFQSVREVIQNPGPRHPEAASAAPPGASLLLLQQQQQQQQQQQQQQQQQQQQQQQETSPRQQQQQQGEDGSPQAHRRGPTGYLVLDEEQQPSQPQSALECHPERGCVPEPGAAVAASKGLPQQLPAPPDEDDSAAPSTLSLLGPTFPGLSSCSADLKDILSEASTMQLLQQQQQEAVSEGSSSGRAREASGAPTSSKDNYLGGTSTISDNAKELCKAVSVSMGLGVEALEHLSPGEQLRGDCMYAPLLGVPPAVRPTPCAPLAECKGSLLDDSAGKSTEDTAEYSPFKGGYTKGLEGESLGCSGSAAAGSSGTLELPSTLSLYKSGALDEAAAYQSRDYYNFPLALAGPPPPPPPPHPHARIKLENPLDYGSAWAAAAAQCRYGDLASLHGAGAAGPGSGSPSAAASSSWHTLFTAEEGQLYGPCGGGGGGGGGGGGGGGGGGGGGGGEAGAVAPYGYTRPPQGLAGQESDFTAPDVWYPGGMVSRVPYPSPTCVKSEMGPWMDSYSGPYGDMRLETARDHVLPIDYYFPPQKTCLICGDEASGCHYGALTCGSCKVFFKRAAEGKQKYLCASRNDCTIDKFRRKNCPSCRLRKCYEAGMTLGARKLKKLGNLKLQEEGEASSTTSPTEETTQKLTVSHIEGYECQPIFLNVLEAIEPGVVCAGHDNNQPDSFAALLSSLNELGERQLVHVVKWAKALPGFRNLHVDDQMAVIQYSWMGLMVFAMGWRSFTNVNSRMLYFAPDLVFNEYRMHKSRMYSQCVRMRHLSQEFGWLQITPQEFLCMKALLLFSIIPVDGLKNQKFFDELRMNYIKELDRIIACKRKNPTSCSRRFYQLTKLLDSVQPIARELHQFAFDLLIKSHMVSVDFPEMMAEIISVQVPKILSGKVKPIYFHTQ

[17] = molecular target: Androgen receptor (Homo sapiens, UniProt P10275, F877L); assay: Antagonist activity at androgen receptor F876L mutant (unknown origin) expressed in HEK293 cells incubated for 24 hrs by luciferase reporter assay; assay type: cell-based
Sequence of Androgen receptor (Homo sapiens, UniProt P10275, F877L) (P10275 whole entry F877L): as the sequence (P10275 whole entry T878A) above, with F877L, A878T counted along it

[18] = Inhibition of TP-stimulated andogen-sensitive seminal vesicle growth in castrated Sprague-Dawley rat at 20 mg/kg, po administered for 10 days and measured after 24 hrs last post dose by hershberger assay relative to control; assay type: functional
[19] = Inhibition of TP-stimulated andogen-sensitive ventral prostate growth in castrated Sprague-Dawley rat at 20 mg/kg, po administered for 10 days and measured after 24 hrs last post dose by hershberger assay relative to control; assay type: functional; conditions: time 10 day
[20] = test system: LNCaP C4-2B; assay: Antitumor activity against enzalutamide-resisitant human C4-2B cells xenografted in castrated BALB/c nude mouse assessed as change in tumor volume at 30 mg/kg, po qd measured after 4 weeks; assay type: functional
[21] = Toxicity in castrated BALB/c nude mouse xenografted with enzalutamide-resisitant human C4-2B cells assessed as body weight loss at 30 mg/kg, po qd measured after 28 days; assay type: organism-based, LNCaP C4-2B; conditions: in vivo, 672 h, time 28 day
[22] = test system: LNCaP; assay: cells; conditions: Homo sapiens
Description: Antiproliferative activity against human LNCAP cells assessed as reduction in cell viability measured after 6 days by CellTiter-Glo assay

Compound: Cc1cn(C2=CC[C@H]3[C@@H]4CC=C5C[C@@H](NC(=O)c6ccncc6)CC[C@]5(C)[C@H]4CC[C@]23C)cn1
- inhibition at 10 µM [1]: 99.3%
- IC50 [2]: 2590 nM
- IC50 [3]: 247 nM
- DC50 [4]: 2840 nM
- half-life [5]: 2.8 h
- Tmax [6]: 2.17 h
- Cmax [7]: 2670 ng/mL
- AUC(0-t) at 24 h [8]: 24800 ng·h/mL
- IC50 [9]: 6470 nM
- Activity [10]: Active
- Activity [11]: Tde
- IC50 [12]: 590 nM
- inhibition at 30 µM [13]: 37%
- Activity [14]: Dde
- IC50 [15]: 490 nM
- IC50 [16]: 209 nM
- IC50 [17]: 268 nM
- inhibition in vivo at 20 mg/kg ([18]; Rattus norvegicus, Sprague-Dawley, 576 h): 62%
- inhibition in vivo at 20 mg/kg ([19]; Rattus norvegicus, Sprague-Dawley, 240 h): 66%
- T/C [20]: -14%
- Activity [21]: Non-Toxic
- IC50 [22]: 205 nM

Compound: C[C@]12CC[C@H](NC(=O)c3ccncc3)CC1=CC[C@@H]1[C@@H]2CC[C@]2(C)C(n3ccnc3)=CC[C@@H]12
- inhibition at 10 µM [1]: 97%
- IC50 [3]: 511 nM
- half-life [5]: 10 h
- Tmax [6]: 2 h
- Cmax [7]: 4500 ng/mL
- AUC(0-t) at 24 h [8]: 28800 ng·h/mL
- IC50 [9]: 4990 nM
- IC50 [22]: 317 nM

Compound: CNC(=O)c1ccc(N2C(=S)N(c3ccc(C#N)c(C(F)(F)F)c3)C(=O)C2(C)C)cc1F [ENZALUTAMIDE]
- inhibition (INH) [1]: 68.83%
- inhibition (INH) [18]: 67%
- inhibition (INH) [19]: 67%
